The values below come from US20230355649A1, “FORMULATIONS OF ANTI-VIRAL COMPOUNDS” (priority 2020, published 2023).

The conditions of data set [1]: in vivo, cited from earlier work.
The test system of data set [2] is SARS-CoV-2 infected cell lines. The following applies: shown in the literature; cited from earlier work.
Details of data set [3]: species or system Dog (Canis familiaris)/Beagle. As to conditions: dog, in vivo. The text has this: For both IV or oral (PO) administered doses, blood samples were collected to determine the presence of analytes in PBMCs. Further details are detailed in Table 14. [table]
For data set [4] the following is noted: not told; cited from earlier work.
On the set-up of data set [5]: species or system Dog (Canis familiaris)/Beagle. The following applies: male, beagle, dog, in vivo, 20 mg/kg. On the procedure:
An in vivo dog study in beagles was carried out to determine the pharmacokinetic (PK) profile of Remdesivir following 1) a single intravenous (IV) infusion of a control formulation and 2) an oral (PO) dose of an Example pharmaceutical composition ES040-72 according to the present invention.
For both IV or oral (PO) administered doses, plasma samples were collected over a period of 48 hours. Further details of the plasma collection are detailed in Table 13.

The subject of data set [6] is human hepatocytes. In words: In vitro metabolism study of Remdesivir with human hepatocytes. It is filed as in vitro ADME. The procedure: The Relative abundance (%) of metabolites post-incubation of Remdesivir (10 μM) was determined after culture with human hepatocytes (1.3 million cells/mL).
Samples were analysed by ultra-high performance liquid chromatography tandem mass spectrometry (UHPLC-MS/MS) with a quadrople time of flight mass spectrometer, for acquisition of high-resolution accurate mass data, with electrospray ionization incorporating in-line UV detection with a photodiode array detector.

The nature of data set [7]: Remdesivir solubility in co-solvents. Format: physicochemical.
Data set [8] is described as follows: physchem. Format: physicochemical. The source says: The solubility of Remdesivir was screened in a range of different acids to test the effect of pH and acidity on Remdesivir solubility.
For data set [9] the following is noted: in vivo, iv; cited from earlier work.
The nature of data set [10]: Dissolution and solubility study, Type II dissolution apparatus. It is filed as physicochemical. As to conditions: drug substance powder in hard-gelatin capsule without excipients; 15 mg in 300 mL 0.4% Tween 80 in water, 100 rpm. The procedure:
The solubility and/or dissolution of Remdesivir over time was determined for various pharmaceutical compositions using a Type II dissolution apparatus. The dissolution of the liquid formulation filled into hard-gelatin capsule and “as-is”, i.e. without being filled into the capsule shell were compared to the release of the non-formulated powder drug substance filled into the capsule, as well as the latter in combination with the solubilizing complexing agent, SBEβCD. The dissolution profiles were compared to that of acetaminophen drug substance filled into a hard-gelatin capsule. Acetaminophen has over 80% bioavailability in practice. […] At appropriate time intervals, about 1 mL aliquots of the dissolution media were withdrawn, filtered and tested using a high-pressure chromatographic assay method for Remdesivir. The area under the peak for the drug at the standard elution time was then compared against that of an external reference standard of Remdesivir to determine the concentration of dissolved Remdesivir at any given time.
Specifically, the Example formulation 1 (ES040-36) comprising Remdesivir was tested both as a solution added directly into the dissolution medium without being filled into a capsule shell to represent the release from an oral solution and also as filled into a hard-gelatin capsule. […]

The format of data set [11] is physicochemical. The procedure:
In order to determine the stability of the prodrug Remdesivir at different pH, the stability of prodrug Remdesivir was tested over time at physiologically relevant pH of gastrointestinal media. The degradation of Remdesivir was determined by measuring the amount of unchanged Remdesivir using a suitable high pressure liquid chromatographic (HPLC) method and comparing the results against a pure reference sample of Remdesivir.

Data set [12] can be described thus: physchem. It is filed as physicochemical. As to conditions: aqueous with cosolvent or surfactant or cyclodextrin, read-out: Remdesivir Solubility.

Each structure is given as a SMILES string. Values after ≈ are worked out from the molar mass of the structure shown. Read-outs that look alike come from different tables or passages of the source.

In the case of `CC(=O)Nc1ccc(O)cc1` [Acetaminophen, acetaminophen], the bioavailability entry in [1] is “over 80%”.
As for `N#C[C@@]1(c2ccc3c(N)ncnn23)O[C@H](CO)[C@@H](O)[C@H]1O` [GS-441524], the oral bioavailability entry in data set [1] (po) was “poor oral bioavailability”. For the same compound, the “in vitro activity against SARS-CoV-2 infected cell lines” value in data set [2] is on record as “considerable in vitro activity”. For the same compound, the “detection in PBMC cells” value in [3] is given as “detected”. Also, in data set [4], the “permeability through the intestinal membrane” value is “poor permeability”. Moreover, in data set [5] (iv), the AUCinf came out at 22000 ± 1950 ng·h/mL and the AUClast worked out at 19800 ± 2510 ng·h/mL. For the same compound, in data set [5] (po), the AUCinf was 21700 ± 2170 ng·h/mL and the AUClast came to 21500 ± 2100 ng·h/mL.
As for `C[C@H](NP(=O)(O)OC[C@H]1O[C@@](C#N)(c2ccc3c(N)ncnn23)[C@H](O)[C@@H]1O)C(=O)O` [GS-704277], the “Relative abundance of analytes post-incubation with Remdesivir” value in [6] (2 h, Remdesivir 10 μM, human hepatocytes 1.3 million cells/mL) was determined as 0.0%; in [6] (6 h, Remdesivir 10 μM, human hepatocytes 1.3 million cells/mL) it was 2.4%; in data set [6] (24 h, Remdesivir 10 μM, human hepatocytes 1.3 million cells/mL), 2.2%.
The solubility is the dissolved amount per volume that the medium holds. With `CCC(CC)COC(=O)[C@H](C)N[P@](=O)(OC[C@H]1O[C@@](C#N)(c2ccc3c(N)ncnn23)[C@H](O)[C@@H]1O)Oc1ccccc1` [Remdesivir], the solubility in [7] (oil or lipid, Solubility) is 15900 µg/mL (≈ 26400 µM); in [7] (organic solvent or mixture, solvent Span 80, read-out: Solubility) it was 300 µg/mL (≈ 498 µM); in data set [8] (pH 0.5), 1690 µg/mL (≈ 2800 µM); in [8] (pH 0.5, aqueous buffer, Solubility), 950 µg/mL (≈ 1580 µM); in [8] (pH 0.98, simulated gastric fluid, Solubility) it was 2490 µg/mL (≈ 4130 µM); in data set [8] (pH 1, aqueous buffer, Solubility), 640 µg/mL (≈ 1060 µM). Further, the solubility is 980 µg/mL (≈ 1630 µM) in data set [8] (pH 1.38, simulated gastric fluid, Solubility); 340 µg/mL (≈ 564 µM) in data set [8] (pH 1.89, simulated gastric fluid, Solubility); 5 µg/mL (≈ 8.3 µM) in data set [8] (pH 2.91, aqueous buffer, Solubility); 10 µg/mL (≈ 16.6 µM) in data set [8] (pH 3.5, aqueous buffer, Solubility); 1 µg/mL (≈ 1.66 µM) in data set [8] (pH 4.74, aqueous buffer, Solubility); 0.9 µg/mL (≈ 1.49 µM) in [8] (pH 6.18, aqueous buffer, Solubility). In addition, the solubility in data set [8] (pH 6.72) was determined as 0 µg/mL; in [12] (Kolliphor EL (Polyoxyl 35 Castor Oil, Cremophor) 0.10 % w/w in water) it was 20 µg/mL (≈ 33.2 µM); in data set [12] (Poloxamer P407 0.07 % w/w in water) it was 6 µg/mL (≈ 9.96 µM); in data set [12] (TWEEN 20 (Polysorbate 20) 0.16 % w/w in water), 16 µg/mL (≈ 26.6 µM); in [12] (TWEEN 80 (Polysorbate 80) 0.30 % w/w in water), 33 µg/mL (≈ 54.8 µM). Also, in data set [9], the “plasma concentration relative to its own EC50” value is “rapidly declines to well below its own EC50”. Also, the “Relative abundance of analytes post-incubation with Remdesivir” value in data set [6] (human, 2 h, 10 μM) is 4.8%; in data set [6] (human, 6 h, 10 μM), 0.1%; in [6] (human, 24 h, 10 μM), 0.7%. Besides, the “dissolution of Remdesivir” value in [10] is recorded as “very slow dissolution”. The “stability / degradation of Remdesivir in solution” value in data set [11] is “acceptable stability and minimal degradation”.
